System: 5-lipoxygenase
Experiment: ARBL whole cell 5-lipoxygenase assay (LTB4 formation in RBL-1 cells stimulated with calcium ionophore A23187, RIA)
Assay type: cell-based
Conditions: @ 10^-6 (concentration unit not given); rat RBL-1 whole cells, A23187 5 μM, 10 min preincubation
Experimental: ARBL WHOLE CELL 5-LIPOXYGENASE ASSAY
The rat basophilic leukemia cell line (RBL-1) was obtained from the American Type Culture Collection (Rockville, Md.).
A radioimmunoassay (RIA) kit of LTB was obtained from Amersham (Arlington Heights, Ill.) and Seragen (Boston, Mass.), respectively.
RBL-1 cells are grown in suspension culture in Eagle's minimum essential medium supplemented with 12% fetal bovine serum at 37° C. in an incubator supplied with air-5% carbon dioxide. Cells are harvested by centrifugation. They are washed with cold phosphate buffered saline pH 7.4 (PBS; NaCl, 7.1 g; NaHPO, 1.15 g; KHPO, 0.2 g; and KCl, 0.2 g/l). Cells are finally suspended in PBS containing 1.0 mM calcium at a density of […] cells/ml. Cells are incubated with and without test agent (in DMSO) (1% DMSO is without effect on arachidonic acid metabolism) for ten minutes at room temperature. Calcium ionophore A23187 (5 μM) is added and cells are incubated for seven minutes at 37° C. The reaction is stopped by chilling the tubes on ice for ten minutes. Cells are separated by centrifugation and the supernatant is stored at -20°. Aliquots (100 μl) are analyzed for LTB using the radioimmunoassay kit as provided by the supplier.
The following table contains biochemical data obtained from this whole cell assay as a percentage of inhibition.

Compound | ARBL @ 10^-6, % inhibition for LTB4
CC(CSc1cc(C(C)(C)C)c(O)c(C(C)(C)C)c1)N(O)C(N)=O (centres unmarked) [Example 2, N-[2-[[3,5-Bis(1,1-dimethylethyl)-4-hydroxyphenyl]thio]-1-methylethyl]-N-hydroxy Urea] | 100%
CNC(=S)N(O)C(C)CSc1cc(C(C)(C)C)c(O)c(C(C)(C)C)c1 (centres unmarked) [Example 1, N-[2-[[3,5-Bis(1,1-dimethylethyl)-4-hydroxyphenyl]thio]-1-methylethyl]-N-hydroxy-N'-methyl Thiourea] | 100%

— patent US5442111A, “3,5-di-tetriary-4-butyl-4-hydroxyphenyloxy- or tioalkylene N-hydroxyamides, N-hydroxythioamides, N-hydroxyureas, and N-hydroxythioureas as 5-lipoxygenase inhibitors” (Warner-Lambert Company, priority 1991, dated 1995)
